Test results from patent publication US10286038B2, “Lysosome membrane protein 2 (LIMP-2) based peptides and related uses” (Northwestern University, priority 2016, dated 2019).
Positions count from the first letter of the chain named.

How the values were obtained:
[1] = target: T1, recombinant GC (Cerezyme) (Homo sapiens, UniProt P04062, R534H); test: recombinant GC activity assay; assay type: biochemical; settings: tenfold molar excess of peptide, acid pH, relative to buffer control
T1 construct: purchased Genzyme Therapeutics, Boston, USA
T1 sequence (P04062 40-536 R534H): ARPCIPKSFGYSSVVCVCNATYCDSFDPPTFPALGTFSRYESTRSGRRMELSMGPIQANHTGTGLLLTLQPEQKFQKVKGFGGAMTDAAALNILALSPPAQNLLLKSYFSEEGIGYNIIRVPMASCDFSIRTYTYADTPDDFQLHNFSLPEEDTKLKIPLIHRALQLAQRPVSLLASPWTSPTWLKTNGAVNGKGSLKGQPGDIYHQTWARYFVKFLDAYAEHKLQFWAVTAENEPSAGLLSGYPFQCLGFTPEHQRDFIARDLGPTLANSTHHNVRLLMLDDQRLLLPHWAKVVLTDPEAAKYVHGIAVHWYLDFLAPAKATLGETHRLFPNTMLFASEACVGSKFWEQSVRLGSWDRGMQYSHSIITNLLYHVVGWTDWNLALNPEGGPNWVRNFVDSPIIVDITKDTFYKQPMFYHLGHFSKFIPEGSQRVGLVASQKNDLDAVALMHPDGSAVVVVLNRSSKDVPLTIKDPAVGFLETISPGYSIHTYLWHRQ
Method: Expression plasmids of LIMP-2 and human GC constructs were generated as described previously (1). For Western blotting nitrocellulose or PVDF membranes were used. EndoH/PNGaseF digests were performed according to manufacturer's instructions (New England Biolabs, Ipswich, USA). For co-immunoprecipitation experiments magnetic agarose G beads (Thermo Fisher Scientific, Waltham, USA) were utilized. Immunofluorescence studies were performed in cells as previously described (1, 3). Cellular co-localization of two proteins was determined by the Pearson's Index (35). Enzyme activity assays of cell lysates or recombinant protein were measured at acid pH using absorbent and fluorescent artificial substrates. For peptide studies, peptides were N-terminally tagged with biotin. If not stated otherwise, recombinant enzyme was incubated with a tenfold higher molarity of peptides. Conditions for pulldown experiments were kept at neutral pH. Protein modelling, molecular analyses, graphics and animations were performed with the UCSF Chimera package.
To determine the enzymatic activity of the recombinant enzymes, lyophilized enzymes were reconstituted in the NaPi buffer described above. The lyophilized samples of wild-type GC (Cerezyme®) and the custom-made recombinant N307S mutant enzyme contain 0.01% polysorbate 80 (Tween 80) (see prescription information for Cerezyme® at the website for Cerezyme®). As indicated in our experiments, the concentration of the detergent is sufficient to support active GC enzyme and to perform the in vitro GC activity assays without adding further detergents to the reaction mix. For enzyme activity assays of recombinant proteins, 0.1-0.2 nmol of GC (Cerezyme®; N370S) and LAMAN were used in the absence or presence of 10× the molar amount of LIMP-2-derived peptides (Table 1) or LIMP-2 ectodomain (1-2 nmol) (Table 3).
All activity assays were performed at acid pH.

GC in H4 cells = target: T2, GC in H4 cells (Homo sapiens, UniProt P04062); test: whole cell GC activity of H4 cell lysate over the 74 hrs time course; assay type: cell-based; settings: H4 cells incubated with TAT-peptide
T2 construct: Lysosomal GC activity of living H4 cells measured in vivo after incubation with uptake-optimized TAT-peptides; endogenous in cells; host or cells: H4 human neuroglioma cells (for the 74 h course: stably overexpressing α-synuclein)
T2 sequence (P04062 40-536): T1 sequence (P04062 40-536 R534H) with H495R
Method: FIG. 6: Characterization of a helical LIMP-2-derived peptide. […] B) In vitro peptide pulldown assay: helix 5 peptides were incubated with recombinant LAMAN and bovine serum albumin (BSA). INPUT and BOUND fractions were loaded onto SDS-PAGE and proteins visualized by coomassie staining (CBB). C) Densitometry of LAMAN and BSA protein bound to peptide, normalized to protein fraction bound to beads only (buffer; n=2-3). D) and E) Activity assay of recombinant (D) GC and (E) LAMAN incubated with different excess molarities (1×-10×) of helix 5 peptide (n=β-5) and LIMP-2 ectodomain (n=4). GC activities were normalized and statistical analyses compared to 0 input of BSA/helix 5 peptide. F) Peptide-pulldown of GC constructs overexpressed in N2a cells with subsequent Western blot analysis (α-hGC) utilizing helix 5 and the 3×D control peptide as a negative binding control. G) Densitometry of GC protein bound to peptides; each construct is normalized to buffer only. H) Live-cell lysosomal GC activity of H4 cells after uptake of helix 5 and 3×D TAT peptides. GC activity was measures every 30 minutes up to 3.5 hours. Cells were treated with DMSO or the “lysosomal inhibitor” bafilomycinA1. […] Lysosomal activity is calculated by subtracting the AUC of DMSO with the AUC of bafilomycinA1 treated samples (n=4). […] GC activity was measured from 16-74 hours and is shown in mU/mg (n=3). […]

Substance	increase of recombinant GC enzyme activity [1]	increase of recombinant GC enzyme activity ([1]; listed as LIMP-2-derived helix 5 peptide)	enhancement of GC activity over the 74 hrs time course (GC in H4 cells)
Biotin-Ttds-LREIIEAMLKAYQQKLFVTHTVDE [helix 5 peptide]	five times	five-fold increase	–
Biotin-Ttds-KFERQLREIIEAMLKAYQQKLFVTHTVDEYGRKKRRQRRR [helix 5 TAT-peptide]	comparable effect	–	persists
